# Experimental data published in article PMC7464559, “Synthesis, Optimization, Antifungal Activity, Selectivity, and CYP51 Binding of New 2-Aryl-3-azolyl-1-indolyl-propan-2-ols” (Pharmaceuticals, 2020).
# Key:
# [1] = biological target: T1, retinoic acid 4-hydroxylase (CYP26A1) (Homo sapiens, UniProt O43174); assay: MCF-7 cellular assay for inhibition of metabolism of all-trans retinoic acid; format: cell-based; conditions: mean (±5%) of two experiments
# T1 construct: endogenous in cells; host or cells: MCF-7 human breast cancer cells
# T1 sequence (O43174 1-497): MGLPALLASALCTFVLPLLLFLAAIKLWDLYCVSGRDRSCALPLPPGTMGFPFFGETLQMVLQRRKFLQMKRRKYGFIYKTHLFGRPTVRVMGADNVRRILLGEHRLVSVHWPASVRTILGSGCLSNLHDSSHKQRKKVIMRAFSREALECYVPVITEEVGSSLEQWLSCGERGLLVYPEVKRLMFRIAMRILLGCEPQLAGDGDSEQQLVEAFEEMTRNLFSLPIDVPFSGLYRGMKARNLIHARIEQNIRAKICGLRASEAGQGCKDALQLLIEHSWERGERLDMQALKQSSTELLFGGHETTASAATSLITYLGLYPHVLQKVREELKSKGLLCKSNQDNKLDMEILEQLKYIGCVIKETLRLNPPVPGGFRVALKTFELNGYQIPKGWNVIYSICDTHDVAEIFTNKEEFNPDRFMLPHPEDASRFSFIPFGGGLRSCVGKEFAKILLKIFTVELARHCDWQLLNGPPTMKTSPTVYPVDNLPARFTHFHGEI
# Experimental: The HPLC system was equipped with a high-pressure pump (Milton–Roy pump, Stone, UK), injector with a 50 μL loop connected to a beta-RAM radioactivity detector, connected to a Compaq™ computer running Laura® data acquisition and analysis software. This enabled online detection and quantification of radioactive peaks. The 10 μM C18 μBondapak™ 3.9 × 300 mm HPLC column (Waters, UK) was used for the all-trans retinoic acid metabolism studies. The HPLC column operating at an ambient temperature was used to separate the metabolites, which were eluted with acetonitrile/1% ammonium acetate in water/acetic acid (75:25:0.1, v/v/v) at a flow rate of 1.9 mL/min. The Ecoscint™ was used as the flow scintillation fluid.
# The separated [^3H]-metabolites were quantitatively calculated from the areas under the curves.
# MRC5 toxicity assay = format: cell-based, human; conditions: human, MRC-5 human fetal lung fibroblast cells, MRC-5 cells, 96-h incubation, mean of triplicate; read-out: Cytotoxicity IC50 on MRC-5 cells
# Experimental: The cytotoxicity of compounds was studied with human fibroblast (MRC5). Cells were grown in RPMI 1640 medium (Sigma-Aldrich, Saint-Quentin Fallavier, France) supplemented with 10% fetal bovin serum (Sigma–Aldrich). Drugs were tested at three concentrations (100, 10, and 1 µM) in triplicate. After a 96-h incubation time, cytotoxicity was measured on the Fluorolite 1000 (Dynatech, Guyancourt, France) after a 4-h incubation time with Uptiblue® (Interchim, Montluçon, France). Inhibitory concentration 50 is a mean of triplicate values. A toxicity index was determined as follow: IC50 against MRC5/Geometric mean of the MICs against Candida spp..
# C. krusei = assay: Anti-Candida in vitro assay, C. krusei strains; format: cell-based; conditions: Pichia kudriavzevii; span over the C. krusei strains tested
# Experimental: Test fungal strains were obtained from the American Type Culture Collection (ATCC) or were clinical isolates from the Laboratory of Parasitology and Medical Mycology, Centre Hospitalier Universitaire (CHU) of Nantes. The strains were maintained on Sabouraud agar slants and were subcultured 24 h before used. The activity of the target compounds 8a–g and 11a–m was determined by the method previously described. Briefly, molecules were diluted in RPMI 1640 medium supplemented with 0.165 M morpholinopropanesulphonic acid (Sigma-Aldrich, Saint-Quentin Fallavier, France), 2% glucose, and antibiotics. Candida suspensions were prepared in RPMI 1640 medium (Sigma-Aldrich, Saint-Quentin Fallavier, France) adjusted to give a final concentration of 10^3 cells/mL, and a 96-well microplate (Nunc, D. Dutscher, Brumath, France) was seeded with 100 µL. Each concentration of molecules (100 µL) to be tested was added (in triplicate) and plates were incubated at 37 °C for 24 h. The cellular viability was evaluated on the Fluorolite 1000 (Dynatech, France) with an excitation at 550 nm and an emission at 590 nm after a 4 h incubation with 10 µL of Alamar Blue®. […] MIC was expressed as the mean of the triplicate values. KTC and FLC were used as standards.
# [2] = system: human fetal lung fibroblast (MRC-5) cells; set-up: method as in PMID 31899979; conditions: previously determined ref 28, read-out: Cytotoxicity IC50 on MRC-5 cells; cited from earlier work
IC50 [1] [µM],MIC (C. krusei) [µg/mL],melting point [°C],SMILES,IC50 at 96 h (MRC5 toxicity assay) [µM],IC50 [2] [µM]
34,–,–,O[C@@](Cn1cncn1)(Cn1ccc2ccccc21)c1ccc(Cl)cc1Cl [(+)-(R)-8g],32,–
18,0.039 to 0.167,–,O[C@](Cn1cncn1)(Cn1ccc2ccccc21)c1ccc(Cl)cc1Cl [(−)-(S)-8g],30,–
–,–,161 to 162,"OC(Cn1cncn1)(Cn1ccc2ccccc21)c1ccc(Cl)cc1Cl (stereo not shown) [Compound 8g, 2-(2,4-Dichlorophenyl)-3-(1H-indol-1-yl)-1-(1H-1,2,4-triazol-1-yl)-propan-2-ol]",–,35
